From patent US20230265118A1, “SALT OF CURCUMIN MONOGLUCURONIDE” (THERABIOPHARMA INC., priority 2020, published 2023)

How the values were obtained:
[1] = Solubility in distilled water; assay type: physicochemical; settings: 100 mg in 1 mL of distilled water
[2] = Stability in water-methanol solution (residual ratio by HPLC); assay type: physicochemical; settings: for Residual Ratio: dissolved in 15 mL water-methanol (1:1), left at room temperature for 35 days, HPLC; for Half-Life: solution in water-methanol (1:1), room temperature
Procedure: A curcumin monoglucuronic acid conjugate (3.62 mg) and a sodium salt of the curcumin monoglucuronic acid conjugate (3.44 mg) were each dissolved in 15 mL of water-methanol (1:1). The prepared solution was left at room temperature for 35 days, and a residual ratio was determined by HPLC.

| Solubility in distilled water [1] | Residual Ratio [2] [%] | Half-Life [2] [days] | Structure (SMILES) |
| --- | --- | --- | --- |
| hardly dissolved | 80.8 | 126.1 | COc1cc(/C=C/C(=O)CC(=O)/C=C/c2ccc(O[C@@H]3O[C@H](C(=O)O)[C@@H](O)[C@H](O)[C@H]3O)c(OC)c2)ccc1O [curcumin monoglucuronic acid conjugate, curcumin monoglucuronide] |
| > 100 mg/mL | 93.8 | 378.4 | COc1cc(/C=C/C(=O)CC(=O)/C=C/c2ccc(O[C@@H]3O[C@H](C(=O)[O-])[C@@H](O)[C@H](O)[C@H]3O)c(OC)c2)ccc1O.[Na+] [sodium(2S,3S,4S,5R,6S)-3,4,5-trihydroxy-6-(4-((1E,6E)-7-(4-hydroxy-3-methoxyphenyl)-3,5-dioxohepta-1,6-dien-1-yl)-2-methoxyphenoxy)tetrahydro-2H-pyran-2-carboxylate] |
